Test results: ChEMBL document CHEMBL1201862, “PubChem BioAssay data set” (2004)
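Where inhibition never reached the appropriate level, the endpoint shown equals the highest concentration tested. Otherwise, values were interpolated linearly from a five-concentration, 48-hour dose response in 96-well plates. GI50 is the concentration that inhibits growth by half.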 Calls of active or inactive are those of the source. No stated cut-off is given here; in the data, active = GI50 up to about 1.1 µM and inactive = higher.

Tests used:
Assay in all cases: NCI tumour cell line growth inhibition, 48 h
OVCAR-8 = system: OVCAR-8
Hs-578T = system: Hs-578T
786-0 = system: 786-0
SNB-19 = system: SNB-19
NCI-H460 = system: NCI-H460
OVCAR-5 = system: OVCAR-5
MDA-MB-435 = system: MDA-MB-435
SK-MEL-5 = system: SK-MEL-5
MDA-N = system: MDA-N
Malme-3M = system: Malme-3M
A498 = system: A498
M14 = system: M14
NCI-H522 = system: NCI-H522
COLO 205 = system: COLO 205
SW-620 = system: SW-620
DU-145 = system: DU-145
HT-29 = system: HT-29
HCT-116 = system: HCT-116
HCC 2998 = system: HCC 2998
IGROV-1 = system: IGROV-1
SF-268 = system: SF-268
HL-60 = system: HL-60
UACC-257 = system: UACC-257
OVCAR-4 = system: OVCAR-4
MCF7 = system: MCF7
MOLT-4 = system: MOLT-4
NCI-H23 = system: NCI-H23
SK-OV-3 = system: SK-OV-3
ACHN = system: ACHN
KM12 = system: KM12
BT-549 = system: BT-549
SNB-75 = system: SNB-75
SK-MEL-28 = system: SK-MEL-28
NCI/ADR-RES = system: NCI/ADR-RES
UO-31 = system: UO-31
SF-295 = system: SF-295
A549 = system: A549
UACC-62 = system: UACC-62
LOX IMVI = system: LOX IMVI
EKVX = system: EKVX
K562 = system: K562
CCRF-CEM = system: CCRF-CEM
SR = system: SR
HOP-62 = system: HOP-62
SN12C = system: SN12C
HOP-92 = system: HOP-92
RPMI-8226 = system: RPMI-8226
OVCAR-3 = system: OVCAR-3
TK-10 = system: TK-10
RXF 393 = system: RXF 393
SF-539 = system: SF-539
HCT-15 = system: HCT-15
CAKI-1 = system: CAKI-1
PC-3 = system: PC-3
U-251 = system: U-251
MDA-MB-231 = system: MDA-MB-231
SK-MEL-2 = system: SK-MEL-2
NCI-H226 = system: NCI-H226
T47D = system: T47D

SMILES: CCOC(=O)/C(=C\NCC(O)c1ccccc1)c1nc2ccccc2[nH]1 (configuration not stated)
- GI50 (OVCAR-8): 23.2 µM (inactive)
- GI50 (Hs-578T): 20.5 µM (inactive)
- GI50 (786-0): 27.5 µM (inactive)
- GI50 (SNB-19): 48.9 µM (inactive)
- GI50 (NCI-H460): 17.2 µM (inactive)
- GI50 (OVCAR-5): 26.4 µM (inactive)
- GI50 (MDA-MB-435): 20.9 µM (inactive)
- GI50 (SK-MEL-5): 11 µM (inactive)
- GI50 (MDA-N): 27.5 µM (inactive)
- GI50 (Malme-3M): 25.6 µM (inactive)
- GI50 (A498): 20.1 µM (inactive)
- GI50 (M14): 30.4 µM (inactive)
- GI50 (NCI-H522): 17.5 µM (inactive)
- GI50 (COLO 205): 16.7 µM (inactive)
- GI50 (SW-620): 31.4 µM (inactive)
- GI50 (DU-145): 28.4 µM (inactive)
- GI50 (HT-29): 21.5 µM (inactive)
- GI50 (HCT-116): 28.6 µM (inactive)
- GI50 (HCC 2998): 20.4 µM (inactive)
- GI50 (IGROV-1): 20.1 µM (inactive)
- GI50 (SF-268): 17.3 µM (inactive)
- GI50 (HL-60): 13.6 µM (inactive)
- GI50 (UACC-257): 19.6 µM (inactive)
- GI50 (OVCAR-4): 23.8 µM (inactive)
- GI50 (MCF7): 18.7 µM (inactive)
- GI50 (MOLT-4): 11.8 µM (inactive)
- GI50 (NCI-H23): 18.1 µM (inactive)
- GI50 (SK-OV-3): 31.8 µM (inactive)
- GI50 (ACHN): 11 µM (inactive)
- GI50 (KM12): 21.6 µM (inactive)
- GI50 (BT-549): 29.9 µM (inactive)
- GI50 (SNB-75): 24.2 µM (inactive)
- GI50 (SK-MEL-28): 17.2 µM (inactive)
- GI50 (NCI/ADR-RES): 20.8 µM (inactive)
- GI50 (UO-31): 0.103 µM (active)
- GI50 (SF-295): 24.8 µM (inactive)
- GI50 (A549): 33.7 µM (inactive)
- GI50 (UACC-62): 14.2 µM (inactive)
- GI50 (LOX IMVI): 19.5 µM (inactive)
- GI50 (EKVX): 21.3 µM (inactive)
- GI50 (K562): 19.8 µM (inactive)
- GI50 (CCRF-CEM): 13.6 µM (inactive)
- GI50 (SR): 17.5 µM (inactive)
- GI50 (HOP-62): 43.5 µM (inactive)
- GI50 (SN12C): 31.9 µM (inactive)
- GI50 (HOP-92): 22.1 µM (inactive)
- GI50 (RPMI-8226): 11.3 µM (inactive)
- GI50 (OVCAR-3): 34.7 µM (inactive)
- GI50 (TK-10): 26.1 µM (inactive)
- GI50 (RXF 393): 27.4 µM (inactive)
- GI50 (SF-539): 21.1 µM (inactive)
- GI50 (HCT-15): 21.6 µM
- GI50 (CAKI-1): 32.4 µM (inactive)

SMILES: NC(CCCCNC(=O)CNC(=O)OCc1ccccc1)C(=O)NC(CCCCNC(=O)CNC(=O)OCc1ccccc1)C(=O)NC(CCCCNC(=O)CNC(=O)OCc1ccccc1)C(=O)NC(CCCCNC(=O)CNC(=O)OCc1ccccc1)C(=O)NC(CCCCNC(=O)CNC(=O)OCc1ccccc1)C(=O)NC(CCCCNC(=O)CNC(=O)OCc1ccccc1)C(=O)O (configuration not stated)
- GI50 (OVCAR-8): > 75 µM (inactive)
- GI50 (PC-3): > 75 µM (inactive)
- GI50 (786-0): > 75 µM (inactive)
- GI50 (SNB-19): > 75 µM (inactive)
- GI50 (NCI-H460): > 75 µM (inactive)
- GI50 (OVCAR-5): > 75 µM (inactive)
- GI50 (MDA-MB-435): > 75 µM (inactive)
- GI50 (SK-MEL-5): > 75 µM (inactive)
- GI50 (Malme-3M): > 75 µM (inactive)
- GI50 (A498): > 75 µM (inactive)
- GI50 (M14): > 75 µM (inactive)
- GI50 (NCI-H522): 16.9 µM (inactive)
- GI50 (SW-620): > 75 µM (inactive)
- GI50 (DU-145): > 75 µM (inactive)
- GI50 (HT-29): > 75 µM (inactive)
- GI50 (U-251): > 75 µM (inactive)
- GI50 (HCT-116): > 75 µM (inactive)
- GI50 (HCC 2998): > 75 µM (inactive)
- GI50 (IGROV-1): > 75 µM (inactive)
- GI50 (SF-268): > 75 µM (inactive)
- GI50 (HL-60): > 75 µM (inactive)
- GI50 (UACC-257): > 75 µM (inactive)
- GI50 (OVCAR-4): > 75 µM (inactive)
- GI50 (MDA-MB-231): > 75 µM (inactive)
- GI50 (SK-MEL-2): > 75 µM (inactive)
- GI50 (MCF7): > 75 µM (inactive)
- GI50 (MOLT-4): > 75 µM (inactive)
- GI50 (NCI-H23): > 75 µM (inactive)
- GI50 (ACHN): > 75 µM (inactive)
- GI50 (BT-549): > 75 µM (inactive)
- GI50 (NCI-H226): > 75 µM (inactive)
- GI50 (SNB-75): > 75 µM (inactive)
- GI50 (SK-MEL-28): > 75 µM (inactive)
- GI50 (T47D): > 75 µM (inactive)
- GI50 (UO-31): > 75 µM (inactive)
- GI50 (A549): > 75 µM (inactive)
- GI50 (UACC-62): > 75 µM (inactive)
- GI50 (LOX IMVI): > 75 µM (inactive)
- GI50 (K562): > 75 µM (inactive)
- GI50 (CCRF-CEM): > 75 µM (inactive)
- GI50 (SR): > 75 µM (inactive)
- GI50 (HOP-62): > 75 µM (inactive)
- GI50 (SN12C): > 75 µM (inactive)
- GI50 (RPMI-8226): > 75 µM (inactive)
- GI50 (OVCAR-3): > 75 µM (inactive)
- GI50 (TK-10): > 75 µM (inactive)
- GI50 (HCT-15): > 75 µM
- GI50 (CAKI-1): > 75 µM (inactive)

SMILES: COc1cc2c(cc1OC)C1CCc3ccccc3CN1CC2 (configuration not stated)
- GI50 (OVCAR-8): > 100 µM (inactive)
- GI50 (PC-3): > 100 µM (inactive)
- GI50 (Hs-578T): > 100 µM (inactive)
- GI50 (786-0): > 100 µM (inactive)
- GI50 (SNB-19): > 100 µM (inactive)
- GI50 (NCI-H460): > 100 µM (inactive)
- GI50 (OVCAR-5): > 100 µM (inactive)
- GI50 (MDA-MB-435): > 100 µM (inactive)
- GI50 (SK-MEL-5): > 100 µM (inactive)
- GI50 (MDA-N): > 100 µM (inactive)
- GI50 (Malme-3M): > 100 µM (inactive)
- GI50 (A498): > 100 µM (inactive)
- GI50 (M14): > 100 µM (inactive)
- GI50 (NCI-H522): > 100 µM (inactive)
- GI50 (COLO 205): > 100 µM (inactive)
- GI50 (SW-620): > 100 µM (inactive)
- GI50 (DU-145): > 100 µM (inactive)
- GI50 (HT-29): > 100 µM (inactive)
- GI50 (U-251): > 100 µM (inactive)
- GI50 (HCT-116): > 100 µM (inactive)
- GI50 (HCC 2998): > 100 µM (inactive)
- GI50 (IGROV-1): > 100 µM (inactive)
- GI50 (SF-268): > 100 µM (inactive)
- GI50 (HL-60): > 100 µM (inactive)
- GI50 (UACC-257): > 100 µM (inactive)
- GI50 (OVCAR-4): > 100 µM (inactive)
- GI50 (MDA-MB-231): > 100 µM (inactive)
- GI50 (SK-MEL-2): > 100 µM (inactive)
- GI50 (MCF7): > 100 µM (inactive)
- GI50 (MOLT-4): > 100 µM (inactive)
- GI50 (NCI-H23): > 100 µM (inactive)
- GI50 (SK-OV-3): > 100 µM (inactive)
- GI50 (ACHN): > 100 µM (inactive)
- GI50 (KM12): > 100 µM (inactive)
- GI50 (NCI-H226): > 100 µM (inactive)
- GI50 (SNB-75): > 100 µM (inactive)
- GI50 (SK-MEL-28): > 100 µM (inactive)
- GI50 (NCI/ADR-RES): > 100 µM (inactive)
- GI50 (T47D): > 100 µM (inactive)
- GI50 (SF-295): > 100 µM (inactive)
- GI50 (A549): > 100 µM (inactive)
- GI50 (UACC-62): > 100 µM (inactive)
- GI50 (LOX IMVI): > 100 µM (inactive)
- GI50 (EKVX): > 100 µM (inactive)
- GI50 (K562): > 100 µM (inactive)
- GI50 (CCRF-CEM): > 100 µM (inactive)
- GI50 (SR): > 100 µM (inactive)
- GI50 (HOP-62): > 100 µM (inactive)
- GI50 (SN12C): > 100 µM (inactive)
- GI50 (HOP-92): > 100 µM (inactive)
- GI50 (OVCAR-3): > 100 µM (inactive)
- GI50 (TK-10): > 100 µM (inactive)
- GI50 (RXF 393): > 100 µM (inactive)
- GI50 (SF-539): > 100 µM (inactive)
- GI50 (HCT-15): > 100 µM
- GI50 (CAKI-1): > 100 µM (inactive)
